Consider nine compounds from patent US6140309A, “Vasoactive effects and free radical generation by β-amyloid peptides” (University of South Florida, priority 1996, dated 2000).

For one data set, the system named is rat coronary arteries. Kind of data set: Constriction of rat coronary arteries by β-amyloid peptides and potentiation of U46619 constriction. Format: cell-based. The settings on record: for coronary artery vasoactivity induced by β-amyloid fragments (real time recording): 10^-6 M β-amyloid peptide. The procedure:
The effects of β-amyloid peptide were examined on samples of rat coronary arteries prepared as described above. Referring specifically to FIG. 1, rat coronary arteries were treated with β-amyloid peptide (Aβ40) causing constriction of the coronary arteries.
FIG. 3 illustrates the effect of various amyloid fragments on the constriction of rat coronary arteries. Following control constriction with 10^-7 M U46619, the tissue samples were rinsed, equilibrated with buffer, and treated with 10^-6 M Aβ peptides for fifteen minutes. Following treatment with the Aβ peptides, the blood vessels were rinsed and again exposed to U46619. The values are expressed as percent of control constriction produced by U46619 alone.

For a further data set, the system named is coronary arteries. Description: Acetylcholine induced relaxation of U46619-preconstricted coronary arteries after Aβ40. The settings on record: single dose 10^-6 M Aβ40; 10^-7 M U46619; acetylcholine 10^-9 M to 10^-5 M. The class given is cell-based, rat. The source says: The effect of pretreatment of coronary arteries with a single dose (10^-6 M) of Aβ40 on acetylcholine induced relaxation is shown in FIG. 20. The blood vessel was preconstricted with 10^-7 M U46619 and relaxed with increasing doses of acetylcholine (10^-9 M to 10^-5 M).

A further data set deals with aortic rings. Description: β-amyloid augmentation of phenylephrine (PE) induced contraction of aortic rings. The class given is cell-based, rat. The settings on record: for effect of drug on β-amyloid induced enhancement of PE mediated contraction: β-amyloid 5×10^-7 M, PE 4×10^-8 M, L-NMMA 10^-4 M, indomethacin 10^-5 M, SQ 29548 10^-5 M, catalase 1000 units/ml. How it is done: (§1) Freshly excised rat and porcine blood vessels were placed in Kreb's bicarbonate buffer equilibrated with 5% CO2 in O2. The buffer composition consisted of 118.2 mM NaCl, 4.7 mM KCl, 1.2 mM MgSO4, 2.5 mM CaCl2, 1.2 mM NaH2 PO4, 23 mM NaHCO3 and 11.2 mM glucose. After cleaning the vessels free of fat and other adhering tissues, the vessels were cut into ring segments of approximately 3mm in length. Care was taken not to damage the intimal surface.
(§2) The blood vessel preparations were mounted on stainless steel hooks attached to a force-displacement transducer and equilibrated under the optimum tension of 1.3 g for a period of sixty minutes in a tissue bath (10 ml) containing oxygenated (5% CO2 in O2) Kreb's buffer at 37° C. The buffer was changed every fifteen minutes. After equilibration for sixty minutes the viability of the blood vessel with intact endothelium was established by constricting the blood vessel using phenylephrine ([…]). This dose of phenylephrine elicited 80% of the maximum response. […] The vessel preparations were washed for fifteen minutes before various manipulations as described below.
The procedure was then repeated following incubation of the tissue with 10^-6 M β-amyloid for fifteen minutes (P1). The tissue was then rinsed and contractions repeated twice following fifteen minute incubation (P2 & P3) without further addition of β-amyloid. Arrows are shown for points of addition for P3.
Following a fifteen minute incubation, the preparations were contracted with 10^-7 M phenylephrine (PE) as described earlier. Control contractions with PE alone were carried out in presence of the various test compounds. Values represent the mean ±SEM of four or more experiments. The heat-inactivated SOD was prepared by placing it in boiling water for thirty minutes followed by cooling prior to use. The hydrogen peroxide-inactivated SOD was prepared by exposing SOD to 10 mM H2 O2 for thirty minutes at pH 8.5 and subsequent separation using Microcon filtration system. The amyloid induced PE contraction was blocked by active SOD. Neither albumin or inactivated SOD had any effect on the amyloid activity.
The effect of preincubation of blood vessel with 10^-6 M β-amyloidon contraction induced by phenylephrine (2,4,8, & 16×10^-8 M is shown in Table 1). The maximum contraction in the absence of β-amyloid is taken as 100% and the values obtained following exposure to β-amyloid are expressed as percent of control value. After washing out phenylephrine and acetylcholine of the control contraction, β-amyloid augmented the phenylephrine induced contractions (P1). This effect was blocked by SOD. Washing out the phenylephrine and acetylcholine of the post peptide contraction and repeating the contractions caused further enhancement (P2). Values represent the mean ±SEM of nine or more experiments.
The tissue was then incubated for fifteen minutes with β-amyloid (5×10^-7 M) with or without the drug, followed by contractions with PE. The concentrations compounds used were: L-NMMA, an inhibitor of NO synthase (10^-4 M); indomethacin, an inhibitor of the cyclooxygenase pathway (10^-5 M); SQ 29548, a thromboxane A2 receptor antagonist (10^-5 M); and catalase (1000 units/ml). Values are represented as percentage of the maximal contraction obtained with β-amyloid and PE alone and standardized to remove the intrinsic effects (if any) of each drug on PE contraction alone. The results represent the mean ±SEM of five or more experiments.

The next data set has as its system blood vessel. Kind of data set: Viability and endothelium test of blood vessel rings: phenylephrine constriction, acetylcholine relaxation. The settings on record: vessel with or without endothelium. The class given is cell-based, rat. The procedure:
as §1
The endothelium was removed from some preparations by rubbing the inside of the lumen with a metal spatula for six to ten seconds and subsequent rinsing with buffer. The removal of endothelium was confirmed by testing for relaxation to acetylcholine [Furchgott and Zawadzki, 1980].
as §2

In the case of “Aβ40: Soluble Aβ containing forty amino acids”, in the data set with rat coronary arteries (10^-6 M), the “duration of constriction compared among fragments” value is “longest sustained constriction”. Besides, the “contraction induced in rat coronary artery” value in the data set with rat coronary arteries (10^-6 M Aβ, fifteen minutes) is recorded as “small but detectable contraction”. The “coronary artery vasoactivity induced by β-amyloid fragments (real time recording)” value in the data set with rat coronary arteries was “induce constriction of the coronary artery”. In the data set on rat coronary arteries (U46619 10^-7 M, 10^-6 M Aβ fifteen minutes), the “vasoconstriction induced by U46619 following treatment with Aβ” value was “significantly potentiated”. In addition, in the data set on coronary arteries, the “effect on vasodilation induced by acetylcholine” value was “significantly reduced the vasodilation induced by acetylcholine”.
Turning to `COc1ccc2c(c1)c(CC(=O)O)c(C)n2C(=O)c1ccc(Cl)cc1` [indomethacin], the “effect of drug on β-amyloid induced enhancement of PE mediated contraction” value (shortened to “effect of drug”) with aortic rings was “none of the compounds used (L-NMMA, indomethacin, SQ29548, or catalase) had any significant effect on the enhancement response”.
“Aβ25-35: β-amyloid peptide fragment (GSNKGAIIGLM; Amyloid-beta protein 42; UniProt P05067 696-706, looked up, fragment)”: the “coronary artery vasoactivity induced by β-amyloid fragments (real time recording)” value with rat coronary arteries is on record as “induce constriction of the coronary artery”.
`CNC[C@H](O)c1cccc(O)c1` [phenylephrine]: the “constriction in response to phenylephrine” value with blood vessel is recorded as “constricted in response to phenylephrine with or without endothelium”.
Take catalase: the “effect of drug” value with aortic rings was “none of the compounds used (L-NMMA, indomethacin, SQ29548, or catalase) had any significant effect on the enhancement response”.
Still for that read-out and setting: then `O=C(O)CCC/C=C\C[C@@H]1[C@H](CNNC(=O)Nc2ccccc2)[C@H]2CC[C@@H]1O2` [SQ29548], with “none of the compounds used (L-NMMA, indomethacin, SQ29548, or catalase) had any significant effect on the enhancement response”.
With `CCCCC[C@H](O)/C=C/[C@@H]1[C@@H](C/C=C\CCCC(=O)O)[C@H]2CO[C@@H]1C2` [U46619], the “effect of the vasoconstrictor on the coronary artery” value in the data set with rat coronary arteries (U46619 10^-7 M) was “also caused constriction of the blood vessel”.
Take albumin: the “effect of test compound on amyloid induced PE contraction (specificity of SOD action)” value in the data set with aortic rings (preincubation before 10^-6 M β-amyloid, fifteen minutes, 10^-7 M PE (FIG. 12c)) is recorded as “did not protect the blood vessel against the effects of β-amyloid”.
For `CNC(=N)NCCC[C@H](N)C(=O)O` [L-NMMA], the “effect of drug” value in the data set on aortic rings was “none of the compounds used (L-NMMA, indomethacin, SQ29548, or catalase) had any significant effect on the enhancement response”.
